Consider 21 compounds from patent US11369607B2, “Compositions, systems, and methods for generating inner ear hair cells for treatment of hearing loss” (Massachusetts Institute of Technology, priority 2014, dated 2022).

The test system of series [1] is expanded Lgr5-positive cells. The series can be described thus: Differentiation of expanded Lgr5-positive cells to hair cells. Type of series: cell-based, mouse. As to conditions: for effect on differentiation of hair cells: in differentiation media. How it is done: Differentiation protocol: For differentiation of expanded Lgr5-positive cells, following 10 days of culture in the cell expansion condition (EFICVP6), the cell colonies were transferred to fresh Matrigel and further cultured in differentiation media. Differentiation media contains Notch pathway inhibitor (e.g. DAPT, D, 5 μM, or LY411575, LY, 5 μM), with or without Gsk3β inhibitor (e.g. CHIR99021). Media were changed every other day. Following another 6-10 days of incubation with differentiation media, the colonies were harvested for qPCR analysis or fixed with 4% PFA and immunostained with hair cell markers Myo7a and Prestin.
RNA extraction and quantitative real-time PCR (qPCR): RNA was isolated from cultured cells (RNeasy Mini Kit; Qiagen) according to the manufacturer's protocol. Quantitative real-time PCR was performed with QuantiTect Probe PCR kit (Qiagen) using commercially available primers and TaqMan probes (Myo7a and Hprt Life Technologies).
Immunocytochemistry staining: Colonies were fixed at room temperature in 4% paraformaldehyde/PBS for 15-20 min and then washed twice with PBS containing 0.1% BSA. Cells were then permeabilized with 0.25% Triton X-100 in PBS in 4° C. for 30 minutes. Following 2 washes with PBS containing 0.1% BSA, the cells were incubated with blocking solution (Power Block, Biogenex) for 1 h. Diluted primary antibodies (in Power Block solution) was applied for 4 h at room temperature or overnight at 4° C. Primary antibodies used were Myosin VIIA (1:500, Rabbit polyclonal from Proteus Biosciences) and Prestin (1:400, Goat polyclonal from Santa Cruz). After 3 washes for 5 minutes each, secondary antibodies (Alexafluor 594 and 647-conjugated; Invitrogen) were added at 1:500 dilution and incubated at room temperature for 30 minutes. Nuclei were visualized with 4,6-diamidino-2-phenylindole (DAPI, Vector Laboratories). Staining was visualized with inverted fluorescence microscope (EVOS; Advanced Microscopy Group).

The subject of series [2] is Lgr5+ supporting cells isolated from the cochlea. Description: Expansion of Lgr5-GFP inner ear progenitor cells in Matrigel based 3D culture. The settings on record: for Lgr5-GFP expression, effect of addition / cell proliferation, effect of addition: neonatal Lgr5 inner ear progenitor cells; for importance of the factor for Lgr5-GFP expression / importance of the factor for cell proliferation: factor removed from the culture medium; for GFP+ cell number / GFP+ percentage / total number of cells: named factor removed from EFICVP6, 10 days; for use in place of VPA: data not shown. Type of series: cell-based, mouse. How it is done:
Cell culture: Heterozygous Lgr5-EGFP-IRES-CreERT2 mice were obtained from Jackson Labs, and neonatal P2-P5 mice were used for cell isolation. Organ of Corti was isolated from Lgr5-GFP mice and further dissociated into single cells using trypsin. Cells were then cultured as previously described (Yin et al, 2014). Briefly, cells were entrapped in Matrigel and plated at the center of wells in a 24-well plate. Following polymerization of Matrigel, 500 μl of culture media (Advanced DMEM/F12 with N2 and B27) was added, containing growth factors including EGF (50 ng/ml) (epidermal growth factor), bFGF (20 ng/ml) (fibroblast growth factor), and IGF1 (50 ng/ml) (insulin-like growth factor 1), and small molecules including CHIR99021 (5 μM), valproic acid (1 mM), 2-phospho-L-ascorbic acid (280 μM), and 616452 (2 μM). Y-27632 (10 μM) was added for the first 2 days. In some experiments, bFGF was used at 50 ng/ml.
For single cell isolation, the organs of Corti were then treated with Cell Recovery Solution (Corning) for 1 h to separate cochlear epithelium from the underlying mesenchyme. Epithelia were then collected and treated with Trypsin (Life Technologies) for 15-20 minutes at 37° C. Single cells obtained by mechanical trituration were filtered by cell strainer (40 μm) and washed with cell culture media. For FACS sorting of Lgr5-high and Lgr5-Low cells, FACS ARIA (BD) was used and Lgr5-GFP was used as indicator of Lgr5 level. Sorted single cells were cultured in Matrigel in inner ear cell culture media with supplement growth factors and small molecules. Y-27632 was added in the first 2 days.
FACS analysis: Cell culture media was removed and Trypsin was added. After incubation at 37° C. for 10-20 min, colonies were dissociated into single cells. Live-cell number were counted using a hemocytometer and trypan blue staining. The cells were then stained with propidium iodide (PI) and analyzed with flow cytometry. The number of GFP-positive cells was calculated by multiplying the total number of cells by the percentage of GFP-positive cells.

The test system of a further series is patients. As to conditions: cited from earlier work.
The mark [3] stands for this setting: named factor removed, versus EFICVP6.

“Also recorded” adds a separate entry of the source. Bounds are passed on as bounds.

For the compound `Cc1ccc2nc(NC(=O)CSc3nc4c(c(=O)n3-c3ccccc3)SCC4)sc2c1` [IWP-2], the “hair cell generation (Myosin VIIA and Prestin staining)” value in series [1] (10 days of differentiation) is on record as “hair cell generation is rarely observed from cultured inner ear progenitor cells”.
`CO[C@@H]1[C@H](N(C)C(=O)c2ccccc2)C[C@H]2O[C@]1(C)n1c3ccccc3c3c4c(c5c6ccccc6n2c5c31)C(=O)NC4` [PKC412]: the “Lgr5-GFP expression, effect of addition” value in series [2] is “does not promote the expression of Lgr5-GFP”.
Take `Cc1cc(NC(=O)c2cccc(NC(=O)/C=C/CN(C)C)c2)ccc1Nc1nccc(-c2cccnc2)n1` [JNK-IN8]: in series [2], the “Lgr5-GFP expression, effect of addition” value is given as “does not promote the expression of Lgr5-GFP”.
For the compound `Cc1cc(N2CCOCC2)cc2[nH]c(-c3c(NC[C@@H](O)c4cccc(Cl)c4)cc[nH]c3=O)nc12` [BMS536924], in series [2], the “Lgr5-GFP expression, effect of addition” value is given as “does not promote the expression of Lgr5-GFP”.
Turning to bFGF: basic fibroblast growth factor, in series [2], the “importance of the factor for Lgr5-GFP expression” value was “less important for GFP expression; also recorded: important for GFP expression”, the “importance of the factor for cell proliferation” value was “important for cell proliferation; also recorded: greatly impacted cell proliferation; also recorded: greatest effect on proliferation; also recorded: important to promote cell proliferation”, the “GFP+ cell number” value is given as 1.4×10^4 cells and the “GFP+ percentage” value was found to be 32%. Further, the “cell proliferation, effect of addition” value in series [2] is “promotes the proliferation of Lgr5 inner ear progenitor cells; also recorded: increased cell proliferation”. Besides, in series [2] (setting [3]), the “decrease of GFP+ cell number” value is recorded as 20 fold, the “decrease of GFP+ percentage” value is recorded as ~2 fold and the “decrease of total cell number” value amounted to 10 fold. Also, the “effect on differentiation of hair cells” value in series [1] is given as “inhibit the differentiation of hair cells”.
As to `CNC(=O)c1ccc(C)c(-n2c(C)cc(OCc3ccc(F)cc3F)c(Br)c2=O)c1` [PH797804], the “Lgr5-GFP expression, effect of addition” value in series [2] is recorded as “does not promote the expression of Lgr5-GFP”.
IGF-1: insulin like growth factor 1: in series [2], the “importance of the factor for Lgr5-GFP expression” value was “marginal effect on cell proliferation or GFP maintenance”, the “importance of the factor for cell proliferation” value was “marginal effect on cell proliferation or GFP maintenance; also recorded: marginal effect to promote cell proliferation”, the “GFP+ percentage” value was 53% and the “total number of cells” value is listed as 4.1×10^5 cells. Moreover, in series [2] (listed as IGF), the “importance of the factor for Lgr5-GFP expression” value was “marginal beneficial effect in promoting cell proliferation and GFP expression”; the “importance of the factor for cell proliferation” value is “marginal beneficial effect in promoting cell proliferation and GFP expression”. In series [2] (listed as IGF1), the “importance of the factor for Lgr5-GFP expression” value is “marginal beneficial effect on cell proliferation and Lgr5 expression”; the “importance of the factor for cell proliferation” value is “marginal beneficial effect on cell proliferation and Lgr5 expression”. Moreover, the “effect on differentiation of hair cells” value in series [1] was “inhibit the differentiation of hair cells”.
In the case of `N.N.[Cl][Pt][Cl]` [Cisplatin], the “high frequency hearing loss (>8 kHZ)” value in the series on patients (human, in vivo) is ≤ 90%.
With `CC(C)(C)OC(=O)Nc1ccc(-c2cc(C(=O)NCCCCCCC(=O)NO)no2)cc1` [CAY10603], in series [2], the “use in place of VPA” value is reported as “does not work”.
As to Laminin 511: added into Matrigel, in series [2], the “Lgr5-GFP expression, effect of addition” value is reported as “promotes GFP expression”.
Same read-out and setting: next, `CCOC(=O)C1=C(N)Oc2ccc(Cl)cc2C1C(C#N)C(=O)OCC` (stereo not shown) [SC79]: “does not promote the expression of Lgr5-GFP”.
Turning to `O=C(CCCCCCNC(=O)c1cnc(N(c2ccccc2)c2ccccc2)nc1)NO` [ACY1215], the “use in place of VPA” value in series [2] is “does not work”.
On to `O=c1ncn2nc(Sc3ccc(F)cc3F)ccc2c1-c1c(Cl)cccc1Cl` [VX745], for which the “Lgr5-GFP expression, effect of addition” value in series [2] is “does not promote the expression of Lgr5-GFP”.
As for `Cc1cccc(-c2n[nH]cc2-c2ccc3ncccc3n2)n1` [compound 616452, 2-(3-(6-Methylpyridin-2-yl)-1H-pyrazol-4-yl)-1,5 napththyridine], in series [2], the “passage / extended culture of the cells” value is recorded as “enables the passage of cultured inner ear progenitor cells; also recorded: enables extended culture of the cells”, the passage of colonies entry was “up to 5 generations”, the “importance of the factor for cell proliferation” value is given as “greater impact on cell proliferation; also recorded: significant reduction in proliferation; also recorded: important to promote cell proliferation” and the “GFP+ cell number” value was 9.8×10^4 cells. Further, in series [2], the “total number of cells” value is recorded as 1.7×10^5 cells; the “Lgr5-GFP expression, effect of addition” value was “does not promote the expression of Lgr5-GFP; also recorded: didn't increase Lgr5-GFP expression”; the “cell proliferation, effect of addition” value is “promotes the proliferation of Lgr5 inner ear progenitor cells”. Moreover, the “colony size and GFP intensity” value in series [2] (added on EFICVP) is “increases the intensity of Lgr5-GFP and the size of colonies; also recorded: tend to grow larger and possess brighter GFP expression than that in control conditions”. Moreover, in series [2] (setting [3]), the “decrease of GFP+ cell number” value was ~3 fold and the “decrease of total cell number” value is ~3 fold. The “effect on differentiation of hair cells” value in series [1] is recorded as “inhibit the differentiation of hair cells”.
With `O=C(NOC[C@H](O)CO)c1ccc(F)c(F)c1Nc1ccc(I)cc1F` [PD0325901], the “Lgr5-GFP expression, effect of addition” value in series [2] was “does not promote the expression of Lgr5-GFP”.
With `CN1CCc2c(c3ccccc3n2Cc2ccc(C(=O)NO)cc2)C1` [Tubastatin A], the “use in place of VPA” value in series [2] is given as “does not work”.
As for `C[C@@H]1CCN(C(=O)CC#N)C[C@@H]1N(C)c1ncnc2[nH]ccc12` [Tofacitinib], in series [2], the “Lgr5-GFP expression, effect of addition” value is on record as “does not promote the expression of Lgr5-GFP”.
With `[H]/N=C(/N)N[C@H]1[C@H](O)[C@@H](O)[C@H](O[C@@H]2O[C@@H](C)[C@](O)(C=O)[C@H]2O[C@@H]2O[C@@H](CO)[C@H](O)[C@@H](O)[C@@H]2NC)[C@@H](N/C(N)=N\[H])[C@@H]1O` [streptomycin], the “incidence of vestibular impairment” value with patients (1 gram per day) is 25%. Further, the “patients with some vestibular impairment” value with patients (2 grams daily for 60 to 120 days) is ~75%.
With `c1ccc2c(-c3cnn4cc(-c5ccc(N6CCNCC6)cc5)cnc34)ccnc2c1` [LDN193189], in series [2], the “Lgr5-GFP expression, effect of addition” value was “does not promote the expression of Lgr5-GFP; also recorded: greatly decreased Lgr5-GFP expression”.
Regarding “EGF: epidermal growth factor (NSDSECPLSHDGYCLHDGVCMYIEALDKYACNCVVGYIGERCQYRDLKWWELR; UniProt P01133 971-1023, looked up)”, in series [2], the “importance of the factor for Lgr5-GFP expression” value is given as “less important for GFP expression” and the “importance of the factor for cell proliferation” value is recorded as “important for cell proliferation; also recorded: greater impact on cell proliferation; also recorded: significant reduction in proliferation; also recorded: important to promote cell proliferation”. In series [2] (setting [3]), the “decrease of GFP+ cell number” value was ~2 fold and the “decrease of total cell number” value is given as ~2 fold. The “effect on differentiation of hair cells” value in series [1] is “inhibit the differentiation of hair cells”.
Consider `Nc1ncnc2c1c(I)cn2[C@@H]1O[C@H](CO)[C@@H](O)[C@H]1O` [5IT], for which the “Lgr5-GFP expression, effect of addition” value in series [2] is “does not promote the expression of Lgr5-GFP”.
